Legend:
Format in all cases: ADME
Details in all cases: human, recombinant enzyme
[1] = Drug metabolism assessed as recombinant CYP2B6.6 (unknown origin) expressed in insect cell microsomes-mediated S-2-ethyl-1,5-dimethyl-3,3-diphenylpyrrolidine formation at 0.25 to 2 uM after 10 mins high-pressure liquid chromatography analysis
[2] = Drug metabolism assessed as recombinant CYP2B6.6 (unknown origin) expressed in insect cell microsomes-mediated R-2-ethyl-1,5-dimethyl-3,3-diphenylpyrrolidine formation at 0.25 to 2 uM after 10 mins high-pressure liquid chromatography analysis
[3] = Drug metabolism assessed as recombinant CYP2B6.1 (unknown origin) expressed in insect cell microsomes-mediated S-2-ethyl-1,5-dimethyl-3,3-diphenylpyrrolidine formation at 0.25 to 2 uM after 10 mins high-pressure liquid chromatography analysis
[4] = Drug metabolism assessed as recombinant CYP2B6.1 (unknown origin) expressed in insect cell microsomes-mediated R-2-ethyl-1,5-dimethyl-3,3-diphenylpyrrolidine formation at 0.25 to 2 uM after 10 mins high-pressure liquid chromatography analysis

Structure (SMILES)	Ks [1] [µM]	Ks [2] [µM]	Ks [3] [µM]	Ks [4] [µM]
CCC(=O)C(CC(C)N(C)C)(c1ccccc1)c1ccccc1 (racemic) [METHADONE]	20	57	13	40
CCC(=O)C(CC(C)N(C)C)(c1ccccc1)c1ccccc1 (stereo in doubt) [METHADONE]	40	97	25	75
